One test has as its system p-4EBP1. Put plainly: Western blot of mRNA translation biomarkers in TNF-α-treated L6 myotubes: p-4EBP1. It counts as cell-based. The following applies: 50 ng/mL TNF-α. On the procedure: (§1) L6 myoblasts (ATCC) were seeded with DMEM (Hyclone) supplemented with 10% FBS (Hyclone) in a 6-well plate at a density of 1×10^5 cells/well, followed by culture. When the cultured cells reached a confluency of ˜80-85% per well, the media in the wells were replaced with DMEM (Hyclone) supplemented with 2% HS (Hyclone), followed by culture for additional 6 days to induce differentiation into myotubes. During culture for 6 days, the culture media were changed once every other day a total of 3 times. […] A group treated with 0.01% DMSO instead of the sample was used as a control. Cells were lysed with NP-40 buffer (ELPIS-Biotech, Daej eon, Korea) with a protease inhibitor cocktail (Sigma-Aldrich, St. Louis, MO, USA) and centrifuged at 13,000 rpm for 10 min. The cell lysate was obtained from the supernatant. The concentration of proteins in the supernatant was determined by the Bradford method (Bio-Rad Laboratories Inc.). Proteins at a certain concentration were heated for 5 min and separated by SDS-PAGE electrophoresis. The separated proteins were transferred to nitrocellulose membranes. Then, p-mTOR, mTOR, p-p70S6K, p70S6K, p-4EBP1, 4EBP1, and alpha-tubulin primary antibodies (Cell signaling technology, Beverly, MA, USA) were diluted at a ratio of 1:1000 with 2.5% bovine serum albumin (BSA; Bioworld, Dubin, OH, USA) and incubated with the proteins transferred to the nitrocellulose membranes at room temperature for 20 h. After incubation of the primary antibodies, the nitrocellulose membranes were washed 3 times with Tris-buffer saline Tween 20 (TBST) for 10 min. After washing, an anti-rabbit secondary antibody (Bethyl Laboratories, Inc., Montgomery, TA, USA) conjugated with horseradish peroxidase recognizing the primary antibodies was diluted 1:5000 with 2.5% BSA (Bioworld) and incubated with the nitrocellulose membranes at room temperature for 2 h. […]
(§2) Protein bands detected through antibody binding were developed using an ECL western blot detection reagent (Amersham, Tokyo, Japan) and visualized using a G;BOX EF imaging system (Syngene, Cambridge, UK). […]
(Immunoblotting shows a protein as a band on a membrane.)

For another test, the system named is atrogin-1. Put plainly: RT-PCR of muscle degrading protein mRNA in TNF-α-treated L6 myotubes: atrogin-1. It counts as cell-based. The following applies: 50 ng/mL TNF-α. On the procedure:
(§3) L6 myoblasts (ATCC) were seeded with DMEM (Hyclone) supplemented with 10% FBS (Hyclone) in a 6-well plate at a density of 1×10^5 cells/well, followed by culture. When the cultured cells reached a confluency of ˜80-85% per well, the media in the wells were replaced with DMEM (Hyclone) supplemented with 2% HS (Hyclone), followed by culture for additional 6 days to induce differentiation into myotubes. During culture for 6 days, the culture media were changed once every other day a total of 3 times. The differentiation-induced cells were harvested and the cell media were replaced with DMEM supplemented with 50 ng/mL TNF-α (PeproTech) in which ganglioside GM3 (Cayman) was dissolved at a concentration of 1 μM or 5 μM. A group treated with 0.01% DMSO instead of the sample was used as a control. Total RNA was isolated from cells using TRIzol reagent (Takara, Kyoto, Japan). The isolated total RNA was quantified using NanoDrop 1000 (Thermo Fisher Scientific Inc., Waltham, MA, USA). 16 μL of the RNA was synthesized into cDNA using Reverse Transcriptase Premix (ELPIS-Biotech) and a PCR system (Gene Amp PCR System 2700; Applied Biosystems, Foster City, CA, USA) at 42° C. for 55 min and 70° C. for 15 min. 3 μL of the synthesized cDNA, the specific primers shown in Table 1 (Bioneer, Daej eon, Korea), and PCR premix (ELPIS-Biotech) were mixed and PCR was repeated 30 times at 95° C. for 30 sec, 60° C. for 1 min, and 72° C. for 1 min. After PCR amplification, cDNA was separated by electrophoresis on a 1.5% agarose gel and the cDNA bands were visualized using a G;BOX EF imaging system (Syngene).
(§4) The procedure of Example 8 was repeated except that cells were treated with ganglioside GM1 (Cayman) at a concentration of 15 μM or 25 μM to investigate the mRNA transcription and expression levels of atrogin-1 and MuRF1 as muscle degrading proteins.
(§5) The procedure of Example 8 was repeated except that cells were treated with ganglioside GD1a (Cayman) at a concentration of 1 μM or 3 μM to investigate the mRNA transcription and expression levels of atrogin-1 and MuRF1 as muscle protein degradation-related enzymes.
(§6) The procedure of Example 8 was repeated except that cells were treated with each of gangliosides GT1b and GQ1b (Cayman) at a concentration of 1 μM to investigate the mRNA transcription and expression levels of atrogin-1 and MuRF1 as muscle protein degradation-related enzymes.

A further test deals with mTOR. Put plainly: mTOR Sandwich ELISA in L6 myotubes (activity for myogenic induction). Type of test: cell-based. Particulars: 12-h culture, *P<0.05. As for the experimental part:
The mTOR protein is known to induce the activation of proteins involved in muscle protein synthesis and an increase in muscle mass in the PI3K/Akt signaling pathway in muscle cells when phosphorylated and activated. Thus, the activity of mTOR was confirmed using an mTOR Sandwich ELISA kit (Cell Signaling Technology, Beverly, MA, USA) to determine the activity of ganglioside GM3 for myogenic induction.
L6 myoblasts (ATCC; Manassas, VA, USA) were seeded with Dulbecco's modified Eagle's media (DMEM; Hyclone) supplemented with 10% fetal bovine serum (FBS; Hyclone, Logan, UT, USA) in a 6-well plate at a density of 1×10^5 cells/well, followed by culture for 24 h. The media in the wells were replaced with DMEM (Hyclone) supplemented with 2% horse serum (HS; Hyclone), followed by culture for additional 6 days to differentiate the L6 cells into myotubes. Then, cells were treated with ganglioside GM3 (Cayman, Ann Arbor, MI, USA) at a concentration of 1 μM or 5 μM. After 12-h culture, cells were lysed by treatment with a cell lysis buffer. Proteins in the cell lysate were quantified by the Bradford method (Bio-Rad Laboratories Inc., Hercules, CA, USA) and the concentration of the cell lysate was then adjusted to 1 mg/mL. The cell lysate was plated in microwells bound with anti-mTOR antibody (50 μL/well) and cultured at 37° C. for 2 h. Cells were washed a total of 4 times with a washing buffer, treated with a detection antibody, and cultured at 37° C. for 1 h, rewashed a total of 4 times with a washing buffer, added with a horseradish peroxidase (HRP)-conjugated secondary antibody, and cultured at 37° C. for 30 min. Finally, after washing a total of 4 times with a washing buffer, TMB substrate was added to each well. After culture at 37° C. for 10 min, a stop solution was added to stop the TMB reaction. 2 min later, absorbance was measured at a wavelength of 450 nm to determine the level of mTOR in the myotubes treated with ganglioside GM3.
The procedure of Example 1 was repeated except that cells were treated with ganglioside GM1 (Cayman) at a concentration of 15 μM or 25 μM to examine the activity of the ganglioside for myogenic induction.
The procedure of Example 1 was repeated except that cells were treated with ganglioside GD1a (Cayman) at a concentration of 1 μM or 3 μM to examine the activity of the ganglioside for myogenic induction.
The procedure of Example 1 was repeated except that cells were treated with each of gangliosides GT1b and GQ1b (Cayman) at a concentration of 1 μM to examine the activity of the ganglioside for myogenic induction.
A general note: ELISA stands for enzyme-linked immunosorbent assay.

Another test deals with MuRF1. Put plainly: RT-PCR of muscle degrading protein mRNA in TNF-α-treated L6 myotubes: MuRF1. Type of test: cell-based. Particulars: 50 ng/mL TNF-α. On the procedure:
as §3, §4, §5, §6

The subject of the next test is p-p70S6K. Briefly: Western blot of mRNA translation biomarkers in TNF-α-treated L6 myotubes: p-p70S6K. It counts as cell-based. Particulars: 50 ng/mL TNF-α. On the procedure: as §1, §2
The test system of the next test is p-mTOR. Put plainly: Western blot of mRNA translation biomarkers in TNF-α-treated L6 myotubes: p-mTOR. It counts as cell-based. Particulars: 50 ng/mL TNF-α. On the procedure: as §1, §2
The subject of a further test is Wistar rats. Briefly: Muscle mass (soleus weight) in TNF-α-induced muscular atrophy animal model. It counts as in vivo. Particulars: 50 mg/kg body weight once a day for 8 weeks; for Average soleus weight: right soleus, control 416.0 ± 19.57. On the procedure:
Wistar rats, aged five weeks, were acclimatized for one week and supplied with 100 ng/g of TNF-α for 2 weeks to induce muscular atrophy. The animals were randomly divided into a total of 5 groups, 8 animals per group, depending on their weight. Each of gangliosides GM3, GM1, GD1a, GT1b, and GQ1b (each 50 mg/kg body weight) as experimental groups was suspended in 0.25% carboxymethylcellulose. The suspension was administered at a given time once a day for 8 weeks. A group administered the same amounts of 0.25% carboxymethyl cellulose and TNF-α ingested by each experimental group was used as a control.
After administration of the sample for 8 weeks, the right soleus was dissected and its weight was measured with a microbalance (Mettler PE160, USA).

For the molecule `CCCCCCCCCCCCC/C=C/[C@@H](O)[C@H](CO[C@@H]1OC(CO)[C@@H](O[C@@H]2OC(CO)[C@H](O[C@H]3OC(CO)[C@H](O)C(O[C@@H]4OC(CO)[C@H](O[C@]5(C(=O)O)CC(O)[C@@H](NC(C)=O)C([C@@H](O)[C@H](O)CO)O5)C(O)C4O)C3NC(C)=O)C(O[C@]3(C(=O)O)CC(O)[C@@H](NC(C)=O)C([C@@H](O)[C@H](O)CO)O3)C2O)C(O)C1O)NC(=O)CCCCCCCCCCCCCCCCC` (some centres unmarked) [Ganglioside GD1a, ganglioside GD1a], the “expression level of phosphorylated p-4EBP1 in L6 muscle cells” value in the test with p-4EBP1 (1 μM or 3 μM) is given as “increased”. Also, the “mRNA expression level of atrogin-1 in L6 muscle cells” value in the test with atrogin-1 (1 μM or 3 μM) was “reduced”. Besides, the “activity of mTOR in L6 muscle cells” value in the test on mTOR (1 μM or 3 μM) was “significantly increased”. Further, the “mRNA expression level of MuRF1 in L6 muscle cells” value (“mRNA expression level of MuRF1” for short) in the test with MuRF1 (1 μM or 3 μM) is recorded as “reduced”. Further, in the test on p-p70S6K (1 μM or 3 μM), the “expression level of phosphorylated p-P70S6K in L6 muscle cells” value was “increased”. Besides, the “expression level of phosphorylated p-mTOR in L6 muscle cells” value with p-mTOR (1 μM or 3 μM) is “increased”. For the same molecule, in the test with Wistar rats, the “increase of muscle (soleus) weight compared to the control group” value (“increase of muscle (soleus) weight” for short) is 17.79% and the Average soleus weight is recorded as 490.0 ± 22.8 mg.
`CCCCCCCCCCCCC/C=C/[C@@H](O)[C@H](CO[C@@H]1O[C@H](CO)[C@@H](O[C@@H]2O[C@H](CO)[C@H](O[C@@H]3O[C@H](CO)[C@H](O)[C@H](O[C@@H]4O[C@H](CO)[C@H](O)[C@H](O)[C@H]4O)[C@H]3NC(C)=O)[C@H](O[C@]3(C(=O)O)C[C@H](O)[C@@H](NC(C)=O)[C@H]([C@H](O)[C@H](O)CO)O3)[C@H]2O)[C@H](O)[C@H]1O)NC(=O)CCCCCCCCCCCCCCCCC` [Ganglioside GM1, ganglioside GM1]: in the test on p-4EBP1 (15 μM or 25 μM), the “expression level of phosphorylated p-4EBP1 in L6 muscle cells” value was “increased”. Also, in the test on atrogin-1 (15 μM or 25 μM), the “mRNA expression level of atrogin-1 in L6 muscle cells” value is “reduced”. In the test with mTOR (15 μM or 25 μM), the “activity of mTOR in L6 muscle cells” value is on record as “significantly increased”. Besides, the “mRNA expression level of MuRF1” value with MuRF1 (15 μM or 25 μM) is “reduced”. Also, in the test on p-p70S6K (15 μM or 25 μM), the “expression level of phosphorylated p-P70S6K in L6 muscle cells” value is reported as “increased”. In the test on p-mTOR (15 μM or 25 μM), the “expression level of phosphorylated p-mTOR in L6 muscle cells” value is recorded as “increased”. Further, in the test on Wistar rats, the “increase of muscle (soleus) weight” value is 22.11% and the Average soleus weight is on record as 508.0 ± 19.8 mg.
With `CCCCCCCCCCCCC/C=C/[C@@H](O)[C@H](CO[C@@H]1OC(CO)[C@@H](O[C@@H]2OC(CO)[C@H](O[C@H]3OC(CO)[C@H](O)C(O[C@@H]4OC(CO)[C@@H](O)C(O[C@]5(C(=O)O)CC(O)[C@@H](NC(C)=O)C([C@@H](O)[C@H](CO)O[C@]6(C(=O)O)CC(O)[C@@H](NC(C)=O)C([C@@H](O)[C@H](O)CO)O6)O5)C4O)C3NC(C)=O)C(O[C@]3(C(=O)O)CC(O)[C@@H](NC(C)=O)C([C@@H](O)[C@H](CO)O[C@]4(C(=O)O)CC(O)[C@@H](NC(C)=O)C([C@@H](O)[C@H](O)CO)O4)O3)C2O)C(O)C1O)NC(=O)CCCCCCCCCCCCCCCCC` (some centres unmarked) [Ganglioside GQ1b, ganglioside GQ1b], in the test with atrogin-1 (1 μM), the “mRNA expression level of atrogin-1 in L6 muscle cells” value is on record as “reduced”. For the same molecule, the “activity of mTOR in L6 muscle cells” value in the test on mTOR (1 μM) was “significantly increased”. Besides, the “mRNA expression level of MuRF1” value in the test with MuRF1 (1 μM) was “reduced”. Further, in the test with Wistar rats, the “increase of muscle (soleus) weight” value stood at 16.37% and the Average soleus weight was determined as 484.1 ± 25.4 mg.
For the molecule `CCCCCCCCCCCCC/C=C/[C@@H](O)[C@H](CO[C@@H]1OC(CO)[C@@H](O[C@@H]2OC(CO)[C@H](O[C@H]3OC(CO)[C@H](O)C(OC4OC(CO)C(O)[C@H](O[C@]5(C(=O)O)CC(O)[C@@H](NC(C)=O)C([C@@H](O)[C@H](O)CO)O5)C4CO)C3NC(C)=O)C(O[C@]3(C(=O)O)CC(O)[C@@H](NC(C)=O)C([C@@H](O)[C@H](CO)O[C@]4(C(=O)O)CC(O)[C@@H](NC(C)=O)C([C@@H](O)[C@H](O)CO)O4)O3)C2O)C(O)C1O)NC(=O)CCCCCCCCCCCCCCCCC` (some centres unmarked) [Ganglioside GT1b, ganglioside GT1b], the “mRNA expression level of atrogin-1 in L6 muscle cells” value in the test with atrogin-1 (1 μM) was “reduced”. Further, in the test with mTOR (1 μM), the “activity of mTOR in L6 muscle cells” value is reported as “significantly increased”. In addition, in the test with MuRF1 (1 μM), the “mRNA expression level of MuRF1” value was “reduced”. In addition, in the test with Wistar rats, the “increase of muscle (soleus) weight” value is on record as 14.42% and the Average soleus weight worked out at 476.0 ± 24.1 mg.
